# Assay results reported in patent US10357537B2, “Cyclotides as immunosuppressive agents” (priority 2011, dated 2019).
# Marks after values point to notes of the source that are not given here.
# Experiments:
# [1] = tested on: activated human primary PBMC; settings: kalata B1 1.8-14 μM; CPT 30 μg/mL; melittin up to 1.6 μM
# Protocol: (§1) After cultivation, the cells were assessed in bioassays as described in the text.
# The levels of apoptosis were determined using the annexin V-FITC apoptosis detection kit (eBioscience, Frankfurt, Germany) according to the manufacturer's instructions. After annexin V staining, propidium iodide solution (PI; eBioscience) was added and the cells were incubated in the dark, followed by a flow cytometric analysis to determine the amount of apoptosis and necrosis. CPT (30 μg/mL) and Triton-X 100 (0.5%) was used as positive controls for apoptosis and necrosis, respectively.
# Cellular apoptotic and necrotic hallmarks were measured by using inter-nucleosomal DNA fragmentation (subG1^+ cells) assay and phosphatidylserine surface analysis through a single and combinatory annexin V and propidium iodide staining. This double staining process allowed the discrimination between viable (annexin^−/PI^−), apoptotic (annexin^+/PI^− and annexin^+/PI^+) or necrotic (annexin^−/PI^+) cells.
# [2] = tested on: activated human primary PBMC; assay: Flow cytometric forward-side-scatter analysis of viability and proliferation; format: cell-based; settings: extract 50-100 μg/mL; CPT 30 μg/mL
# Protocol: After completion of the chemical analysis, different concentrations of the crude O. affinis cyclotide extract were tested for its anti-proliferative capacity on activated human primary PBMC (FIG. 2).
# PHA-L-stimulated PBMC = assay: Proliferation of PHA-L-stimulated CFSE-labelled PBMC with or without exogenous IL-2; format: cell-based, human; settings: cyclotides 4 μM, CsA 5 μg/mL, 3 day culture; for proliferation with exogenous IL-2: IL-2 10 U/mL
# Protocol: FIG. 13. Proliferation capacity of cyclotide-treated PBMC in the presence of exogenous IL-2. […] The cells were cultured without exogenous IL-2 (10 U/mL) (A and B) or in the presence of IL-2 (C and D). The CFSE-labelled cells were measured after a 3 day culture period by flow cytometry and representative data are presented in dot plots (A and C). Data are presented as mean and standard deviation (SD) of three independent experiments.
# (§2) Following purification, PBMCs were equilibrated for 2 h at 37° C. […] This was followed by washing of each well with 100 μl PBS (centrifugation for 5 min, 1000 rpm, 20° C.) and re-suspending the cells in 100 μl medium for further assays.
# Purified PBMCs (5*10^6 cells/ml) were incubated with […] of the fluorescent dye CFSE (5-carbofluoreszenein-ciacetat-succinylester) for 10 min at 37° C. The reaction was stopped using medium, cells were washed one time with medium by centrifugation (10 min, 300×g, 20° C.) and diluted with medium to 4*10^6 cells/ml.
# [3] = tested on: IL-2 surface receptor CD25 on PBMC; assay: IL-2 surface receptor CD25 expression, FACS; format: cell-based, human; settings: cyclotides 4 μM, CsA 5 μg/mL, PHA-L; stimulated untreated PBMCs = 100%
# Protocol: PBMCs were isolated from blood samples of healthy adults that were provided by the transfusion center of the university hospital in Freiburg (Germany). […] The lymphocyte-enriched layer was transferred into a new vessel and washed three times with PBS and centrifuged again (10 min, twice with 300×g and last time with 800 rpm, 20° C.). For the following experiments, the cells were either stained with CFSE or diluted with medium to 4*10^6 cells/ml. Cells were counted in alight microscope using trypan blue staining and a hemocytometer.
# as §2
# Activated cells were transferred into a 96-well plate, centrifuged (5 min, 1000 rpm, 20° C.), washed one time with 100 μl FACS-buffer and stained with CD25 PE for 15 min at 4° C. Then cells were washed twice with FCS-buffer and resuspended in 100 μl FACS-buffer, transferred into FACS vials with a total volume of 250 μl and the expression of IL2 surface receptor CD25 was measured by FACS analysis using a FACSCalibur instrument (BD Biosciences).
# Amongst other pathways, T-cell proliferation is determined by binding of the cytokine IL-2 to its cell surface receptor. Therefore the influence of cyclotides on the expression of the IL-2 receptor was tested. […] As control substance CsA was used. […] Treatment with V10A yields 114%±12.5, V10K yields 112%±16.3 and T8K yields 114%±17.3 CD25 surface expression after 24 h as compared to the control (FIG. 11B).
# [4] = Relative insecticidal activity (other assays, Table 2); settings: in vivo
# [5] = tested on: activated human primary PBMC; assay: Anti-proliferative CFSE cell division assay on anti-CD3/CD28-activated PBMC; settings: PBMCs, anti-CD3/28 mAbs, 72 h, cyclotides 1.8-14 μM; n.a. = not active
# Protocol: Human peripheral blood mononuclear cells (PBMC) were isolated from the blood of healthy adult donors obtained from the Blood Transfusion Centre (University Medical Center, Freiburg, Germany). Venous blood was centrifuged on a LymphoPrep™ gradient (density: 1.077 g/cm^3, 20 min, 500×g, 20° C.; Progen, Heidelberg, Germany). Afterwards cells were washed twice with medium and cell viability and concentration was determined using the trypan blue exclusion test. PBMC were cultured in RPMI 1640 medium supplemented with 10% heat-inactivated fetal calf serum (PAA, Coelbe, Germany), 2 mM L-glutamine, 100 U/mL penicillin and […] (all from Invitrogen, Karlsruhe, Germany). The cells were cultured at 37° C. in a humidified incubator with a 5% CO2/95% air atmosphere. All experiments conducted on human material were approved by the Ethics committee of the University of Freiburg.
# as §1
# For cell proliferation and cell division tracking analysis PBMC were harvested and washed twice in cold PBS and resuspended in PBS at a concentration of 5×10^6 cells/mL. Cells were incubated for 10 min at 37° C. with carboxyfluorescein diacetate succinimidyl ester (CFSE; 5 μM: Sigma-Aldrich, Taufkirchen, Germany). The staining reaction was stopped by washing twice with complete medium. Afterwards, the cell division progress was analysed using flow cytometric analysis.
# The anti-proliferative effect of cyclotide mutants/variants was tested according to Example 5. […] Afterwards the cell proliferation was assessed by analysing cell division using flow cytometric-based histogram analysis.
# [6] = tested on: degranulation marker LAMP-1 (CD107a) on activated PBMC; assay: CD107a degranulation analysis; format: cell-based, human; settings: after 36 h; T20K 4 μM, CsA 5 μg/mL
# Protocol: FIG. 16. Degranulation capacity of cyclotide-treated activated human PBMC. […] After 36 hour of cultivation the cells were restimulated with PMA/Ionomycin for 2.5 hours in the presence of a CD107a mAbs and GolgiStop reagent to determine the amount of degranulation by flow cytometry. Representative data are shown in dot plots (A) and in (B) data are presented as mean and standard deviation (SD) of three independent experiments.
# Activated cells were grown for 36 h and then treated for re-stimulation with PMA (50 ng/ml) und ionomycin (500 ng/ml) and stained with CD107a PE. After 1 h the reaction was stopped with 2 μl Golgi-Stop (1:10) and incubated for 2.5 h at 37° C. The cells were transferred into a 96-well plate, centrifuged (5 min, 1000 RPM, 20° C.) and washed with 100 μl FACS-buffer. Afterwards, PBMCs were stained with CD8 PE-Cy5 for 15 min at 4° C. and following to wash cycles with FACS-buffer the cells were resuspended in 100 μl, transferred into FACS vials with a total volume of 250 μl and the degranulation was measured by FACS analysis.
# After determining the influence of cyclotide treatment on the effector function of PBMCs on the basis of measuring IFN-gamma and TNF-alpha cytokine levels, it is of interest to determine an effect of cyclotides on the degranulation activity. Activation of cytotoxic CD8^+-lymphocytes lead to a release of cytolytic granules, which contain/express lysosomal-associated membrane protein 1 (CD107; LAMP-1). During degranulation, the granule vesicle membranes fuse with the membranes of activated CD8^+-lymphocytes and therefore LAMP-1 can be used as a marker protein for the cytotoxic activity of T-lymphocytes, which can be measured with FACS. After 36 h, 42%±21.4 of the CsA- and 49%±16.8 of the T20K-treated cells contain the degranulation marker LAMP-1 as compared to the control (FIG. 16). This can be interpreted in the way that CsA- and T20K-treated cells have reduced cytotoxicity.
# nematodes = assay: Relative nematocidal activity (other assays, Table 2); format: in vivo; settings: some cells print two values separated by a slash
# [7] = tested on: IFN-gamma production of activated PBMCs; assay: IFN-gamma secretion of PBMC, ELISA-based FACS; format: cell-based, human; settings: 36 h past stimulation
# Protocol: FIG. 14. IFN-γ secretion by cyclotide-treated PBMC. […] Untreated cells were used as control. Following 24 h or 36 h of cultivation, the cells were restimulated with PMA/Ionomycin for further 6 hour. The amount of IFN-γ was measured in the supernatant of cultured cells using an ELISA-based flow cytometric method. The data are presented as mean and standard deviation (SD) of three independent experiments.
# Activated cells were resuspended in 50 μl of medium, transferred into a 96-well plate and treated with 10 μg/ml PHA-L. After incubation for 24 h cells were re-stimulated with PMA (50 ng/ml) und ionomycin (500 ng/ml) for 6 h. Next, the cells were transferred into Eppendorf tubes, centrifuged (5 min, 3000 RPM, 20° C.) und 50 μl of the supernatant was again transferred into new tubes and stored at −20° C. Production of cytokines was measured and quantified using the FlowCytomix™ kit according to manufacturer's instructions.
# Therefore it is of interest to determine whether cyclotides only have anti-proliferative effects or also affect the effector function of T-lymphocytes, which would directly relate to changes in the IFN-gamma and TNF-alpha production. Therefore, the production of both cytokines of cyclotide-treated, activated PBMCs at an early time point after PBMC activation was tested.
# [8] = Relative hemolytic activity (other assays, Table 2); format: cell-based; settings: some values given for the Ala mutant
Compound,induction of apoptosis [1],dead cells / harm to cells (forward-side-scatter) [2],proliferation with exogenous IL-2 (PHA-L-stimulated PBMC),"proliferation as compared to the control cells, without exogenous IL-2 (PHA-L-stimulated PBMC)",CD25 expression after 48 h [3],CD25 surface expression after 24 hours [3],Relative activity in other assays (fold difference to kB1): insecticidal [4],"IC50 (μM) ± STDEV, inhibition of PBMC proliferation [5]",cells containing the degranulation marker LAMP-1 as compared to the control [6],Relative activity in other assays (fold difference to kB1): nematocidal (nematodes),"IFN-gamma production as compared to the control, 36 h [7]",Relative activity in other assays (fold difference to kB1): hemolytic [8]
"CC[C@@]1(O)C(=O)OCc2c1cc1n(c2=O)Cc2cc3ccccc3nc2-1 [camptothecin, reference compound]",significantly increased the fractions of these cells,induced a high proportion of dead cells,–,–,–,–,–,–,–,–,–,–
"kalata B1 mutant GLPVCGEKCVGGTCNTPGCTCSWPVCTRN (SEQ ID No. 8) [Kalata B1 T8K, Kalata T8K]",–,–,did not change the effect on proliferation,no effect on the proliferation,no significant change in receptorexpression,114%±17.3,0.2 fold difference to kB1,not active (n.a.)^b,no influence on the degranulation activity,<0.2 fold difference to kB1,did not induce significant changes in the level of IFN-gamma,–
kalata B1 mutant GLPVCGETCAGGTCNTPGCTCSWPVCTRN (SEQ ID No. 9) [Kalata V10A],–,–,did not change the effect on proliferation,no effect on the proliferation,no significant change in receptorexpression,114%±12.5,1.1 fold difference to kB1,–,–,–,did not induce significant changes in the level of IFN-gamma,0.5 fold difference to kB1
